Reference: ChEMBL document CHEMBL3739341, “Calycosin inhibits oxidative stress-induced cardiomyocyte apoptosis via activating estrogen receptor-α/β” (Bioorg Med Chem Lett, 2016)
Active and inactive are the calls of the source. No cut-off for these calls is given here.

Legend:
H9c2 [1] = assay: Upregulation of ER-alpha expression in rat H9c2 cells after 24 hrs by western blot analysis; type: functional, cell-based
H9c2 [2] = assay: Upregulation of ER-beta expression in rat H9c2 cells after 24 hrs by western blot analysis; type: functional, cell-based
H9c2 [3] = assay: Inhibition of H2O2-induced loss of cell viability in rat H9c2 cells at 5,10 and 20 uM after 24 hrs by MTT assay; type: functional, cell-based
H9c2 [4] = assay: Inhibition of H2O2-induced apoptosis in rat H9c2 cells after 24 hrs by AO/EB staining based fluorescence microscopic analysis; type: functional, cell-based
H9c2 [5] = assay: Inhibition of H2O2-induced loss of cell viability in rat H9c2 cells at 5,10 and 20 uM after 24 hrs by MTT assay in presence of ER inhibitor ICI182780; type: functional, cell-based
H9c2 [6] = assay: Inhibition of H2O2-induced apoptosis in rat H9c2 cells at 5,10 and 20 uM after 24 hrs by AO/EB staining based fluorescence microscopic analysis in presence of ER inhibitor ICI182780; type: functional, cell-based
[7] = target: T1, Estrogen receptor (Rattus norvegicus) (UniProt P06211+Q62986); assay: Activation of ER-alpha/beta in rat H9c2 cells assessed as increase in phosphorylated Akt level after 24 hrs by western blot analysis; type: cell-based
[8] = target: T1, Estrogen receptor (Rattus norvegicus); assay: Activation of ER-alpha/beta in rat H9c2 cells assessed as phosphorylated Akt level at 5,10 and 20 uM after 24 hrs by western blot analysis in presence of ER inhibitor ICI182780; type: cell-based

- Activity [7]: Active
- Activity [8]: inactive
SMILES: COc1ccc(-c2coc3cc(O)ccc3c2=O)cc1O
- Activity (H9c2 [1]): Dose-dependent effect
- Activity (H9c2 [2]): Dose-dependent effect
- inhibition (H9c2 [3]): Active
- inhibition (H9c2 [4]): Dose-dependent effect
- inhibition (H9c2 [5]): inactive
- inhibition (H9c2 [6]): inactive
